Literature values in patent US8354121B2, “Tape preparation” (Dainippon Sumitomo Pharma Co., Ltd., priority 2006, dated 2013).

Experiments:
dopamine D2 receptor = dopamine D2 receptor (Homo sapiens, UniProt P14416); conditions: compared with haloperidol
serotonin 5-HT2 receptor = conditions: compared with haloperidol

Sequence of dopamine D2 receptor (P14416 whole entry, species assumed): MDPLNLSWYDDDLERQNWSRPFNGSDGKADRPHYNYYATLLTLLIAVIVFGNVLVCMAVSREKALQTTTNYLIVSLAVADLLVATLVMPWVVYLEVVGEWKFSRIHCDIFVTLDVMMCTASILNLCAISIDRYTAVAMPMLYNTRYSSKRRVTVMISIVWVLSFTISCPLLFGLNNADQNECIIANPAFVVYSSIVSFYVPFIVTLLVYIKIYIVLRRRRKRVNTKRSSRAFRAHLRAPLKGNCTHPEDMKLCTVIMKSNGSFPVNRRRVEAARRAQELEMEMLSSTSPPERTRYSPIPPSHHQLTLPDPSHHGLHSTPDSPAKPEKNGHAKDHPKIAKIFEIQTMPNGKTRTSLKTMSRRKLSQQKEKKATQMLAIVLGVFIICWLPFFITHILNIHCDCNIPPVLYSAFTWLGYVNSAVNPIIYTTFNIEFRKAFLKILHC

CCN1CCN(c2cc(-c3ccc(F)cc3)c3c(n2)CCCCCC3)CC1 [Compound A, 2-(4-ethyl-1-piperazinyl)-4-(4-fluorophenyl)-5,6,7,8,9,10-hexahydrocycloocta[b]pyridine]
affinity for dopamine D2 receptor (dopamine D2 receptor): higher affinity
affinity for serotonin 5-HT2 receptor (serotonin 5-HT2 receptor): higher affinity
